Measured values from patent US10882837B2, “Amide compounds and use thereof” (ALPHALA CO., LTD., priority 2017, dated 2021).

Experiments:
GCGR = GCGR (Homo sapiens, UniProt P47871); assay: I125-glucagon binding assay (competition, GCGR membrane fractions); set-up: expressed in transfected cells; host or cells: CHO-K1; inhibition: dose or concentration left out as unconfirmed; settings: for IC50: competition with I125-glucagon 0.0625 nM, membrane fractions from GCGR overexpressed CHO-K1 cells; for inhibition: read-out: percentage of inhibition (number in parenthesis in IC50 binding column)
Sequence of GCGR (P47871 26-477, species assumed): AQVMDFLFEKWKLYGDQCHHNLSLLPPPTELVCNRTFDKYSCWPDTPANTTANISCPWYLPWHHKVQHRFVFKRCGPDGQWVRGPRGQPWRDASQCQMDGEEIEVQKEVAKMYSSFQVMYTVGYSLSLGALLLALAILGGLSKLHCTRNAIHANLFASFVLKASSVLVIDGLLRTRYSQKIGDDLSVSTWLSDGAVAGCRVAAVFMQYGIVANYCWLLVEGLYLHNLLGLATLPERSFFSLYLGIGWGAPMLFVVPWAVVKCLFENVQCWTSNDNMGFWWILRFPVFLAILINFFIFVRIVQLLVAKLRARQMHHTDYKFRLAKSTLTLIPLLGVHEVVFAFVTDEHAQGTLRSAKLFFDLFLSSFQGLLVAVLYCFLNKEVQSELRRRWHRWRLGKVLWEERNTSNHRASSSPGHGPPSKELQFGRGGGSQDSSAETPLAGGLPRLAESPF
Procedure: I^125-Glucagon Binding Assay
The binding affinity of each compound was evaluated by a competition assay with I^125-glucagon. GCGR membrane fractions were obtained from GCGR overexpressed CHO-K1 cells as a stock of 1 mg/ml concentration. To evaluate the IC50 of compounds binding to GCGR, GCGR membrane fractions were treated with compounds with a serial dilution. The membrane fractions were diluted to 7.5 microgram per well in 70 microliter assay buffer contained 50 mM Tris pH 7.4 and 0.5% (w/v) bovine serum albumin and added into 96 wells plate. The membrane fractions were then mixed with 10 microliter diluted compounds. After 5 minutes pre-incubation, 20 microliter I^125 labeled glucagon (Perkin Elmer) was added into each well at the final concentration of 0.0625 nM. The assay mixtures were incubated at 25° C. for 30 minutes and then transferred onto the Millipore Multiscreen GF/B Plate coated with 0.5% (w/v) Polyethyleneimine. The filter plate was washed with wash buffer contained 50 mM Tris pH 7.4 for 2 times, 300 microliter each time. The residual isotope was detected by Hidex CHAMELEON V micro-beta counter and the IC50 value of each compound binding to GCGR was calculated with non-linear regression.

glucagon receptor (GCGR) = target: T1, glucagon receptor (GCGR) (Homo sapiens, UniProt P47871); assay: Glucagon cAMP inhibition assay (Cisbio cAMP Dynamic 2 HTRF); format: cell-based; settings: GCGR overexpressed CHO-K1 cells or human primary hepatocytes (not specified); glucagon at EC50
T1 construct: expressed in transfected cells; host or cells: CHO-K1
T1 sequence (P47871 26-477, species assumed): as above
Procedure: Glucagon eAMP Inhibition Assay
Downstream secondary messenger eAMP induced by glucagon was detected by Cisbio cAMP Dynamic 2 kit. Testing compounds were each prepared as a dimethyl sulfoxide (DMSO) solution at the concentration of 10 mM. To evaluate the potency of compounds in inhibiting the cAMP production, glucagon receptor (GCGR) overexpressed CHO-K1 cells or human primary hepatocytes were treated with compounds with a serial dilution. The cells were re-suspended in Hank's Balanced Salt solution (HBSS) contained 0.1% (w/v) bovine serum albumin and 800 nM 3-isobutyl-1-methylxanthine (IBMX) and seeded into low volume, 384 wells white plate. The diluted compounds were then added into the plate for 30 minutes pre-incubation where the final DMSO concentration was 1%. The cells were stimulated with glucagon at the concentration equaled to EC50 (an indicium of the concentration of a drag that gives half-maximal response) for 30 minutes at room temperature. After incubation, lysis buffer contain cAMP antibody and fluorescence acceptor were added into each well for additional 60 minutes incubation. Results were recorded by Molecular Devices SpectraMax Paradigm with the HTRF Detection Cartridges and the IC50 value of each compound in inhibiting the cAMP production was calculated with non-linear regression based on the amount of cAMP production.

Row | IC50 (GCGR) [nM] | IC50 (glucagon receptor (GCGR)) [nM] | inhibition (GCGR) [%] | Structure (SMILES)
1 | > 30000 | 225 |  | CCCCC(Nc1ccc(C(=O)NCCC(=O)OCC)cc1)c1ccc(-c2noc(C(C)(C)C)n2)cc1 (stereo not shown) [Compound 2-3]
2 | 95 | 862 |  | O=C(O)CCNC(=O)c1ccc(N[C@H](c2ccc(-c3nc4ccccc4o3)cc2)C2CCCC2)cc1 [Compound 4-24, (S)-3-(4-(((4-(benzo[d]oxazol-2-yl)phenyl)(cyclopentyl)methyl)amino)benzamido)propanoic acid]
3 | 21 | 632 |  | CC(C)[C@@H](Nc1ccc(-c2nnc(-c3ccccc3)o2)cc1)c1ccc(C(=O)NCCC(=O)O)cc1 [Compound 3-15, (R)-3-(4-(2-methyl-1-(4-(5-phenyl-1,3,4-oxadiazol-2-yl)phenylamino)propyl)benzamido)propanoic acid]
4 | 14 | 202 |  | CCCC[C@H](Nc1ccc(C(=O)NCCC(=O)O)cc1)c1ccc(-c2nc(-c3ccccc3)no2)cc1 [Compound 5-8, (S)-3-(4-((1-(4-(3-phenyl-1,2,4-oxadiazol-5-yl)phenyl)pentyl)amino)benzamido)propanoic acid]
5 | 2790 | 1230 |  | CCOC(=O)CCNC(=O)c1ccc(C(Nc2ccc(-c3nnc(-c4ccccc4)o3)cc2)C(C)C)cc1 (stereo not shown) [Compound 3-4]
6 | 203 | 15700 |  | CCCCC(Nc1ccc(C(=O)NCCC(=O)O)cc1)c1ccc(-c2nnc(-c3ccccn3)o2)cc1 (stereo not shown) [Compound 1-16, 3-(4-((1-(4-(5-(Pyridin-2-yl)-1,3,4-oxadiazol-2-yl)phenyl)pentyl)amino)benzamido)propanoic acid]
7 | 211 | 3330 |  | CCCC(Nc1ccc(C(=O)NCCC(=O)O)cc1)c1ccc(-c2nnc(-c3ccccc3)o2)cc1 (stereo not shown) [Compound 1-7]
8 | 830 | 46.7 |  | CCOC(=O)CCNC(=O)c1ccc(N[C@H](c2ccc(-c3noc(-c4ccccc4)n3)cc2)C(C)CC)cc1 (stereo partly drawn) [Compound 2-18, ethyl 3-(4-(((1S)-2-methyl-(4-(5-phenyl-1,2,4-oxadiazol-3-yl)phenyl)butyl)amino)benzamido)propanoate]
9 | 2680 | 248 | 35 | CCOC(=O)CCNC(=O)c1ccc(NC(c2ccc(-c3noc(-c4ccc(F)cc4)n3)cc2)C(C)C)cc1 (stereo not shown) [Compound 2-24, ethyl 3-(4-((1-(4-(5-(4-fluorophenyl)-1,2,4-oxadiazol-3-yl)phenyl)-2-methylpropyl)amino)benzamido)propanoate]
10 | > 30000 | 442 |  | CCOC(=O)CCNC(=O)c1ccc(C(Nc2ccc(-c3nnc(-c4ccc(F)cc4)o3)cc2)C(C)C)cc1 (stereo not shown) [Compound 3-9, ethyl 3-(4-(1-((4-(5-(4-fluorophenyl)-1,3,4-oxadiazol-2-yl)phenyl)amino)-2-methylpropyl)benzamido)propanoate]
11 | 25 | 1740 |  | CCCCC(Nc1ccc(-c2nnc(-c3ccccc3)o2)cc1)c1ccc(C(=O)NCCC(=O)O)cc1 (stereo not shown) [Compound 3-1, 3-(4-(1-((4-(5-phenyl-1,3,4-oxadiazol-2-yl)phenyl)amino)pentyl)benzamido)propanoic acid]
12 | 956 | 17100 |  | CC(C)CC(Nc1ccc(C(=O)NCCC(=O)O)cc1)c1ccc(-c2nnc(C(F)(F)F)o2)cc1 (stereo not shown) [Compound 1-9, 3-(4-((3-Methyl-1-(4-(5-(trifluoromethyl)-1,3,4-oxadiazol-2-yl)phenyl)butyl)amino)benzamido)propanoic acid]
13 | 6250 | 395 | 63 | CCOC(=O)CCNC(=O)c1ccc(NC(CC(C)C)c2ccc(-c3noc(C(C)(C)C)n3)cc2)cc1 (stereo not shown) [Compound 2-5, ethyl 3-(4-((1-(4-(5-(tert-butyl)-1,2,4-oxadiazol-3-yl)phenyl)-3-methylbutyl)amino)benzamido)propanoate]
14 | 54 | 511 |  | O=C(O)CCNC(=O)c1ccc(NC(c2ccc(-c3noc(-c4ccccc4)n3)cc2)C2CCCCC2)cc1 (stereo not shown) [Compound 2-17, 3-(4-((cyclohexyl(4-(5-phenyl-1,2,4-oxadiazol-3-yl)phenyl)methyl)amino)benzamido)propanoic acid]
15 | 876 | 2050 |  | CC(C)C[C@@H](Nc1ccc(C(=O)NCCC(=O)O)cc1)c1ccc(-c2nnc(-c3ccccc3)o2)cc1 [Compound 1-62, (R)-3-(4-((3-methyl-1-(4-(5-phenyl-1,3,4-oxadiazol-2-yl)phenyl)butyl)amino)benzamido)propanoic acid]
16 | 112 | 917 |  | CC(C)C[C@@H](Nc1ccc(C(=O)NCCC(=O)O)cc1)c1ccc(-c2nc3ccccc3o2)cc1 [Compound 4-14, (R)-3-(4-((1-(4-(benzo[d]oxazol-2-yl)phenyl)-3-methylbutyl)amino)benzamido)propanoic acid]
17 | 23.8 | 754 |  | O=C(O)CCNC(=O)c1ccc(N[C@@H](c2ccc(-c3nc4ccccc4o3)cc2)C2CCCC2)cc1 [Compound 4-12, (R)-3-(4-(((4-(benzo[d]oxazol-2-yl)phenyl)(cyclopentyl)methyl)amino)benzamido)propanoic acid]
18 | > 30000 | 277 |  | CCOC(=O)CCNC(=O)c1ccc([C@@H](Nc2ccc(-c3nnc(-c4ccccc4)o3)cc2)C(C)C)cc1 [Compound 3-12, (S)-ethyl 3-(4-(2-methyl-1-(4-(5-phenyl-1,3,4-oxadiazol-2-yl)phenylamino)propyl)benzamido)propanoate]
19 | 201 | 3250 |  | CC(C)C[C@H](Nc1ccc(C(=O)NCCC(=O)O)cc1)c1ccc(-c2nnc(-c3ccccc3)o2)cc1 [Compound 1-61, (S)-3-(4-((3-methyl-1-(4-(5-phenyl-1,3,4-oxadiazol-2-yl)phenyl)butyl)amino)benzamido)propanoic acid]
20 | 799 | 119 |  | CCCCC(Nc1ccc(C(=O)NCCC(=O)OCC)cc1)c1ccc(-c2nc3ccccc3o2)cc1 (stereo not shown) [Compound 4-2, ethyl 3-(4-((1-(4-(benzo[d]oxazol-2-yl)phenyl)pentyl)amino)benzamido)propanoate]
21 | 60 | 899 |  | CCC(C)[C@@H](Nc1ccc(C(=O)NCCC(=O)O)cc1)c1ccc(-c2nc3ccccc3o2)cc1 (stereo partly drawn) [Compound 4-22, 3-(4-(((1R)-1-(4-(benzo[d]oxazol-2-yl)phenyl)-2-methylbutyl)amino)benzamido)propanoic acid]
22 | > 30000 | 2880 |  | CCCC[C@@H](Nc1ccc(C(=O)NCCC(=O)OCC)cc1)c1ccc(-c2noc(C(F)(F)F)n2)cc1 [Compound 2-46, ethyl (R)-3-(4-((1-(4-(5-(trifluoromethyl)-1,2,4-oxadiazol-3-yl)phenyl)pentyl)amino)benzamido)propanoate]
23 | 1040 | 283 |  | CCCC[C@H](Nc1ccc(C(=O)NCCC(=O)OCC)cc1)c1ccc(-c2noc(-c3ccccc3)n2)cc1 [Compound 2-33, ethyl (S)-3-(4-((1-(4-(5-phenyl-1,2,4-oxadiazol-3-yl)phenyl)pentyl)amino)benzamido)propanoate]
24 | > 30000 | 26 |  | CCOC(=O)CCNC(=O)c1ccc(N[C@@H](CC(C)C)c2ccc(-c3nnc(-c4ccccc4)o3)cc2)cc1 [Compound 1-59, ethyl (S)-3-(4-((3-methyl-1-(4-(5-phenyl-1,3,4-oxadiazol-2-yl)phenyl)butyl)amino)benzamido)propanoate]
25 | 634 | 61 |  | CCOC(=O)CCNC(=O)c1ccc(N[C@H](c2ccc(-c3noc(-c4ccccc4)n3)cc2)C(C)C)cc1 [Compound 2-27, ethyl (S)-3-(4-((2-methyl-1-(4-(5-phenyl-1,2,4-oxadiazol-3-yl)phenyl)propyl)amino)benzamido)propanoate]
26 | 204 | 97 |  | COC(=O)CCNC(=O)c1ccc(NC(c2ccc(-c3noc(-c4ccccc4)n3)cc2)C(C)C)cc1 (stereo not shown) [Compound 2-31, methyl 3-(4-((2-methyl-1-(4-(5-phenyl-1,2,4-oxadiazol-3-yl)phenyl)propyl)amino)benzamido)propanoate]
27 | > 30000 |  |  | CCCC[C@H](Nc1ccc(C(=O)NCCC(=O)O)cc1)c1ccc(-c2noc(-c3ccccc3)n2)cc1 [Compound 2-34, (S)-3-(4-((1-(4-(5-phenyl-1,2,4-oxadiazol-3-yl)phenyl)pentyl)amino)benzamido)propanoic acid]
